In patent US5204470A, “Azabicyclic derivatives” (John Wyeth & Brother, Limited, priority 1990, dated 1993):

Legend:
5-HT3 receptors [1] = molecular target: T1, 5-HT3 receptors (Oryctolagus cuniculus, UniProt A0A5F9C9J3); test: 5-HT3 antagonist activity in the isolated right atrium of the rabbit heart; format: cell-based; details: antagonism of 5-HT evoked increase in spontaneous rate of beating, read-out: apparent pKB (converted)
T1 construct: isolated right atrium of the rabbit heart; from tissue; host or cells: rabbit isolated right atrium (sympathetic nerve terminals)
T1 sequence (A0A5F9C9J3 1-494): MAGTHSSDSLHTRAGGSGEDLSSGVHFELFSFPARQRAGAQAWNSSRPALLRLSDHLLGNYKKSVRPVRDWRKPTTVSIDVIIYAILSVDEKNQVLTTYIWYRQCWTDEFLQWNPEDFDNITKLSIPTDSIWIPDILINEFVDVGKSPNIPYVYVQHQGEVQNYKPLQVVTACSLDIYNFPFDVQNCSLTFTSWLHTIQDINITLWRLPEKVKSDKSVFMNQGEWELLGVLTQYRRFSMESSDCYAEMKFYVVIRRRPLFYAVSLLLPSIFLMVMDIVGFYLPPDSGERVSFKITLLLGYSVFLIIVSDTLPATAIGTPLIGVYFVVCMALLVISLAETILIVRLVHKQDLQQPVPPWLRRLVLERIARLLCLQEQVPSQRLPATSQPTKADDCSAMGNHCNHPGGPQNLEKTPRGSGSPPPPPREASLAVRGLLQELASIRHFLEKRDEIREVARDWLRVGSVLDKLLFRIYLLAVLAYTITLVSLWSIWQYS
Description: The compounds of the invention are also tested for 5-HT3 antagonist activity in the isolated right atrium of the rabbit heart based upon the method of Fozard J. R., Naunyn-Schmiedeberg's Arch. Pharmacol., 1984, 326, 36-44. This procedure relies upon the ability of 5-HT to stimulate 5-HT3 receptors present on symphetic nerve terminals in the heart, causing release of noradrenaline which evokes an increase in the spontaneous rate of beating. The antagonist potency is expressed in a similar manner to that of the preceding test method i.e. as an apparent pKB.

5-HT3 receptors [2] = molecular target: T2, 5-HT3 receptors (Rattus norvegicus, UniProt P35563); test: 5-HT3 receptor antagonism in the isolated vagus nerve of the rat (5-HT induced depolarization); format: cell-based; details: isolated rat cervical vagus nerve; antagonism of 5-HT induced depolarization; estimated from 5-HT concentration ratios; read-out: apparent pKB (converted)
T2 construct: isolated vagus nerve of the rat; from tissue; host or cells: rat isolated (cervical) vagus nerve
T2 sequence (P35563 24-483): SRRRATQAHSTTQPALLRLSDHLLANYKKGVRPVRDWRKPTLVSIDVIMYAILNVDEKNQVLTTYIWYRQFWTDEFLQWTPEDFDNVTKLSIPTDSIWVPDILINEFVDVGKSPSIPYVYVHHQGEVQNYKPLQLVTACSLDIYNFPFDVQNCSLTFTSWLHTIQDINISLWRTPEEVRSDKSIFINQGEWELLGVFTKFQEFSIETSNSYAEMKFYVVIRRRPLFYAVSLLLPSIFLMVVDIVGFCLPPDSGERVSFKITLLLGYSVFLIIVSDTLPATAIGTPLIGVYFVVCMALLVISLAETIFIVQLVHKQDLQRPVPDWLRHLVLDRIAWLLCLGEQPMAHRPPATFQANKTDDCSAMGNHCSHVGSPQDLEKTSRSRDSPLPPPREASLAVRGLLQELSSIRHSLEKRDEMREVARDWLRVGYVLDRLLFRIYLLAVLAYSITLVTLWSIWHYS
Description: The compounds of the invention are tested for 5-HT3 receptor antagonism in the isolated vagus nerve of the rat by a method based upon that of Ireland S. J. and Tyers M. B., Brit. J. Pharmacol., 1987, 90, 229-238. The procedure relies upon the ability of 5-HT to induce depolarization of neurones in the cervical vagus nerve by a direct action on 5-HT3 receptors. A concentration-response curve to 5-HT induced depolarization is obtained and the antagonists are added to the bath containing the isolated nerve before repeating the 5-HT concentration-response curve. Antagonist potency is estimated for the 5-HT concentration ratios and expressed as an apparent pKB value (where KB is the antagonist dissociation constant).

## CN1C2C=C(Cc3ccc4ccccc4n3)CC1CC2 (centres unmarked) [Example 2, 3-(2-Quinolinylmethyl)-8-methyl-8-azabicyclo[3.2.1]oct-2-ene]
5-HT3 receptors [1]
  Kb: 2.51 nM
5-HT3 receptors [2]
  Kb: 63.1 nM
